Substitutions are numbered along the chain they refer to. Where a SMILES comes first, the peptide text is derived from it. Bridges are numbered along the chain shown (N, C = ends).
How the values were obtained:
Experiment in all cases: ERK1/2 phosphorylation
Assay type in all cases: cell-based
hCTR V375A = target: T1, hCTR V375A (Homo sapiens, UniProt P30988, V375A); conditions: CV1-FlpIn cells, mean ± S.E.M.; for Emax: pERK maximal response; for EC50: pERK, three-parameter logistic fit
T1 construct: c-Myc (N); expressed in transfected cells
T1 sequence (P30988 25-474 V375A): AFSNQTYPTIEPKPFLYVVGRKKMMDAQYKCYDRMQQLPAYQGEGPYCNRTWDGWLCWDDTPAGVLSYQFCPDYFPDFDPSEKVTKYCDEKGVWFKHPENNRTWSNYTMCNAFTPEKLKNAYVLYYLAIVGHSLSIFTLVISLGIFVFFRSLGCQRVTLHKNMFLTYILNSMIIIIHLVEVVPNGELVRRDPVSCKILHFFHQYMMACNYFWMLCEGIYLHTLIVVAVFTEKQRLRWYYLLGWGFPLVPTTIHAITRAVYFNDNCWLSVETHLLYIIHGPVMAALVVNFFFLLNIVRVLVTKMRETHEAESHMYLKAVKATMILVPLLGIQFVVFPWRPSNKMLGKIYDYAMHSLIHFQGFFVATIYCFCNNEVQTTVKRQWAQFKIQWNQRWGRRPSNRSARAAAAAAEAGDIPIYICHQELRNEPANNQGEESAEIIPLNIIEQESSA
Outline: (§1)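 Cells were seeded at 2.5 × 10^4 cells/well and cultured overnight before stimulation. ERK1/2 phosphorylation was normalized to the maximal response to 10% FBS measured at 6 min. EC50 and Emax came from a 3-parameter logistic fit of concentration-response curves.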

hCTR L297A = target: T2, hCTR L297A (Homo sapiens, UniProt P30988, L297A); conditions: CV1-FlpIn cells, mean ± S.E.M.; for Emax: pERK maximal response; for EC50: pERK, three-parameter logistic fit
T2 construct: c-Myc (N); expressed in transfected cells
T2 sequence (P30988 25-474 L297A): T1 sequence (P30988 25-474 V375A) with L273A, A351V
Outline: as §1

hCTR R362A = target: T3, hCTR R362A (Homo sapiens, UniProt P30988, R362A); conditions: CV1-FlpIn cells, mean ± S.E.M.; for Emax: pERK maximal response; for EC50: pERK, three-parameter logistic fit
T3 construct: expressed in transfected cells
T3 sequence (P30988 25-474 R362A): T1 sequence (P30988 25-474 V375A) with R338A, A351V
Outline: as §1

hCTR V293A = target: T4, hCTR V293A (Homo sapiens, UniProt P30988, V293A); conditions: CV1-FlpIn cells, mean ± S.E.M.; for Emax: pERK maximal response; for EC50: pERK, three-parameter logistic fit
T4 construct: c-Myc (N); expressed in transfected cells
T4 sequence (P30988 25-474 V293A): T1 sequence (P30988 25-474 V375A) with V269A, A351V
Outline: as §1

hCTR P363A = target: T5, hCTR P363A (Homo sapiens, UniProt P30988, P363A); conditions: CV1-FlpIn cells, mean ± S.E.M.; for Emax: pERK maximal response
T5 construct: expressed in transfected cells
T5 sequence (P30988 25-474 P363A): T1 sequence (P30988 25-474 V375A) with P339A, A351V
Outline: as §1

SMILES	Emax (hCTR V375A) [%]	Emax (hCTR L297A) [%]	Emax (hCTR R362A) [%]	Emax (hCTR V293A) [%]	Emax (hCTR P363A) [%]	EC50 (hCTR V375A) [nM]	EC50 (hCTR L297A) [nM]	EC50 (hCTR R362A) [nM]	EC50 (hCTR V293A) [nM]	EC50 (hCTR P363A; pERK, three-parameter logistic fit) [nM]
CC(C)C[C@H](NC(=O)[C@H](CC(N)=O)NC(=O)[C@H](CC(N)=O)NC(=O)[C@H](CO)NC(=O)[C@H](CO)NC(=O)[C@H](CCCNC(=N)N)NC(=O)[C@@H](NC(=O)[C@H](CC(C)C)NC(=O)[C@H](Cc1ccccc1)NC(=O)[C@H](CC(N)=O)NC(=O)[C@H](C)NC(=O)[C@H](CC(C)C)NC(=O)[C@H](CCCNC(=N)N)NC(=O)[C@H](CCC(N)=O)NC(=O)[C@@H](NC(=O)[C@H](C)NC(=O)[C@@H]1CSSC[C@H](NC(=O)[C@@H](N)CCCCN)C(=O)N[C@@H](CC(N)=O)C(=O)N[C@@H]([C@@H](C)O)C(=O)N[C@@H](C)C(=O)N[C@@H]([C@@H](C)O)C(=O)N1)[C@@H](C)O)C(C)C)C(=O)NCC(=O)N1CCC[C@H]1C(=O)N[C@H](C(=O)N[C@@H](CC(C)C)C(=O)N1CCC[C@H]1C(=O)N1CCC[C@H]1C(=O)N[C@H](C(=O)N[C@@H](CC(N)=O)C(=O)N[C@H](C(=O)NCC(=O)N[C@@H](CO)C(=O)N[C@@H](CC(N)=O)C(=O)N[C@H](C(=O)N[C@@H](Cc1ccc(O)cc1)C(N)=O)[C@@H](C)O)C(C)C)[C@@H](C)O)C(C)C [rAmy]	77 ± 13	49 ± 6	36 ± 7	67 ± 8	28 ± 9					
CC[C@H](C)[C@H](NC(=O)[C@H](C)NC(=O)[C@@H](NC(=O)[C@H](CCC(N)=O)NC(=O)[C@@H]1CCCN1C(=O)[C@H](Cc1ccccc1)NC(=O)[C@@H](NC(=O)[C@H](Cc1c[nH]cn1)NC(=O)[C@H](Cc1ccccc1)NC(=O)[C@H](CCCCN)NC(=O)[C@H](CC(N)=O)NC(=O)[C@H](Cc1ccccc1)NC(=O)[C@H](CC(=O)O)NC(=O)[C@H](CCC(N)=O)NC(=O)[C@@H](NC(=O)[C@H](Cc1ccc(O)cc1)NC(=O)[C@@H](NC(=O)CNC(=O)[C@H](CC(C)C)NC(=O)[C@H](CCSC)NC(=O)[C@@H]1CSSC[C@H](N)C(=O)NCC(=O)N[C@@H](CC(N)=O)C(=O)N[C@@H](CC(C)C)C(=O)N[C@@H](CO)C(=O)N[C@@H]([C@@H](C)O)C(=O)N1)[C@@H](C)O)[C@@H](C)O)[C@@H](C)O)[C@@H](C)O)C(=O)NCC(=O)N[C@H](C(=O)NCC(=O)N[C@@H](C)C(=O)N1CCC[C@H]1C(N)=O)C(C)C [hCT]	67 ± 3	63 ± 5	64 ± 7	130 ± 8	64 ± 6					
CC(C)C[C@H](NC(=O)CNC(=O)[C@H](C)NC(=O)[C@H](CC(C)C)NC(=O)[C@H](CCCNC(=N)N)NC(=O)[C@H](Cc1cnc[nH]1)NC(=O)[C@@H](NC(=O)[C@@H](NC(=O)[C@@H]1CSSC[C@H](NC(=O)[C@H](C)N)C(=O)N[C@@H](CC(=O)O)C(=O)N[C@@H]([C@@H](C)O)C(=O)N[C@@H](C)C(=O)N[C@@H]([C@@H](C)O)C(=O)N1)C(C)C)[C@@H](C)O)C(=O)N[C@@H](CC(C)C)C(=O)N[C@@H](CO)C(=O)N[C@@H](CCCNC(=N)N)C(=O)N[C@@H](CO)C(=O)NCC(=O)NCC(=O)N[C@H](C(=O)N[C@H](C(=O)N[C@@H](CCCCN)C(=O)N[C@@H](CC(N)=O)C(=O)N[C@@H](CC(N)=O)C(=O)N[C@@H](Cc1ccccc1)C(=O)N[C@H](C(=O)N1CCC[C@H]1C(=O)N[C@H](C(=O)N[C@@H](CC(N)=O)C(=O)N[C@H](C(=O)NCC(=O)N[C@@H](CO)C(=O)N[C@@H](CCCCN)C(=O)N[C@@H](C)C(=O)N[C@@H](Cc1ccccc1)C(N)=O)C(C)C)[C@@H](C)O)C(C)C)C(C)C)C(C)C [hαCGRP]	58 ± 7	73 ± 12	31 ± 8	149 ± 22		110	97.7	112	52.5	
CC(C)C[C@H](NC(=O)[C@H](CCCCN)NC(=O)CNC(=O)[C@H](CC(C)C)NC(=O)[C@@H](NC(=O)[C@@H]1CSSC[C@H](N)C(=O)N[C@@H](CO)C(=O)N[C@@H](CC(N)=O)C(=O)N[C@@H](CC(C)C)C(=O)N[C@@H](CO)C(=O)N[C@@H]([C@@H](C)O)C(=O)N1)C(C)C)C(=O)N[C@@H](CO)C(=O)N[C@@H](CCC(N)=O)C(=O)N[C@@H](CCC(=O)O)C(=O)N[C@@H](CC(C)C)C(=O)N[C@@H](Cc1c[nH]cn1)C(=O)N[C@@H](CCCCN)C(=O)N[C@@H](CC(C)C)C(=O)N[C@@H](CCC(N)=O)C(=O)N[C@H](C(=O)N[C@@H](Cc1ccc(O)cc1)C(=O)N1CCC[C@H]1C(=O)N[C@@H](CCCNC(=N)N)C(=O)N[C@H](C(=O)N[C@@H](CC(N)=O)C(=O)N[C@H](C(=O)NCC(=O)N[C@@H](CO)C(=O)NCC(=O)N[C@H](C(=O)N1CCC[C@H]1C(N)=O)[C@@H](C)O)[C@@H](C)O)[C@@H](C)O)[C@@H](C)O [sCT]	70 ± 3	68 ± 4	107 ± 10	135 ± 12	95 ± 5					
CSCC[C@H](NC(=O)CNC(=O)[C@H](CO)NC(=O)[C@H](Cc1ccccc1)NC(=O)[C@H](CCCNC(=N)N)NC(=O)[C@H](Cc1c[nH]cn1)NC(=O)[C@H](Cc1ccccc1)NC(=O)[C@H](CC(N)=O)NC(=O)[C@H](CC(N)=O)NC(=O)[C@H](CC(C)C)NC(=O)[C@H](CC(N)=O)NC(=O)[C@H](CCCNC(=N)N)NC(=O)[C@H](Cc1c[nH]c2ccccc12)NC(=O)[C@H](Cc1ccc(O)cc1)NC(=O)[C@H](C)NC(=O)[C@H](CO)NC(=O)[C@H](CC(C)C)NC(=O)[C@@H](NC(=O)[C@@H]1CSSC[C@H](N)C(=O)N[C@@H](CO)C(=O)N[C@@H](CC(N)=O)C(=O)N[C@@H](CC(C)C)C(=O)N[C@@H](CO)C(=O)N[C@@H]([C@@H](C)O)C(=O)N1)C(C)C)C(=O)NCC(=O)N[C@@H](Cc1ccccc1)C(=O)NCC(=O)N1CCC[C@H]1C(=O)N[C@@H](CCC(=O)O)C(=O)N[C@H](C(=O)N1CCC[C@H]1C(N)=O)[C@@H](C)O [pCT] (H-CSNLSTCVLSAYWRNLNNFHRFSGMGFGPETP-NH2; disulfide 1-7)	89 ± 4	59 ± 4	45 ± 4	136 ± 11	39 ± 2	2.63	0.977	7.59	3.16	5.75
